Source: US20240269308A1, “PRODRUGS OF TOPOISOMERASE I INHIBITOR FOR ADC CONJUGATIONS AND METHODS OF USE THEREOF” (priority 2022, published 2024)
pEC50, pIC50: −log10 of the molar value. Read-outs that look alike come from different tables or passages of the source.

Legend:
[1] = M3385 metabolism in human liver S9 without cofactors NADPH and UDPGA; assay type: in vitro ADME; details: 240 min
Description: (§1) Briefly, hepatocytes are complete liver cells, containing various first-phase and second-phase enzymes that can mediate various metabolic reactions; therefore, it is a better in vitro model to test metabolites. Liver S9 is the supernatant obtained by grinding and centrifuging the liver cells. The enzymes content is lower compared to Hepatocytes. It mainly contains CYP enzymes and some biphasic enzymes (but no biphasic coenzyme), so additional coenzyme (NADPH and UDPGA, etc.) is needed to mediate the biphasic reaction.
(§2) Assay buffer: 100 mM potassium phosphate buffer (K+/Mg2+ buffer, pH7.4):
(§3) The initial stock of liver S9 was diluted in K+/Mg^2+ buffer, pH 7.4 from 20 mg/ml to 2× Liver S9 (2 mg/mL) with alamethicin (50 μg/mL):
(§4) 2×LS9/compound M3385 solution was prepared.
(§5) Time zero/T0: 199 μL 2 mg/mL liver S9 solution; 100 μL of 8 mM NADPH solution; 100 μL of 20 mM UDPGA solution; and 1200 μL of ACN were added, vortexed at 1000 rpm for 5 min, then 1 μL of 4 mM test compound solution was added.
(§6) T240-without a co-factor: 199 μL 2 mg/mL liver S9 solution and 200 μL of buffer were added. The T240-w/o sample was prewarmed at 37° C. for 5 min and 1 μL of 4 mM test compound solution was added. After 240 min incubation, 1200 μL of ACN was added and then vortexed at 1000 rpm for 5 min.
(§7) Protein precipitation: quenched samples were centrifuged at 14000 rpm for 5 min.
(§8) Sample preparation: an aliquot of 1200 μL of the supernatant was evaporated under N2 stream until dry. Dried extracts were reconstituted with 200 μL of 25% aqueous ACN, vortexed for 2 minutes, centrifuged at 14000 rpm for 5 min, and then 3 μL of reconstituted supernatant were injected for LC-UV-MS analysis.

[2] = tested on: Calu-3; assay: anti-Her2 viability assay, Calu-3 cells (target positive); assay type: cell-based; details: Calu-3 target positive cells, 6 days; for pIC50: Homo sapiens, 144 h, read-out: Calu-3 IC50
Experimental: (§9) The anti-Her2 viability assay protocol is following.
(§10) 0.1% BSA was added to the Opti-MEM reduced serum media [Gibco, cat #31985-070]. This assay media was used for the dilution of ADC and free drug.
(§11) Cells were seeded in their growth media into 96 well plates (Thermo #136101) one day prior to adding ADCs: 1000/well SKBR3 cells in 80 uL media (target positive cells), 1000/well NCI-N87 cells in 80 uL media (target positive cells), 1000/well Calu-3 in 80 uL media (target positive cells), and 800/well NCI-H1975 cells in 80ul media (target negative cells).
(§12) Serial dilutions of free drug in 100% DMSO (1:4 10 pts starting from 100 uM) were prepared. Serially diluted payload was transferred into Opti-Mem with 0.1% BSA (10 uL into 990 uL media). Serial dilutions of ADCs/isotype controls at 1:4 in Opti-Mem with 0.1% BSA (starting from 5×1000 nM) were prepared. 20ul assay media diluted ADC/isotype conjugates as well as free drug were transferred to above cells. The plates were incubated at 37° C., 5% CO2 for 6 days. Plates were developed by adding 100ul CellTiter Glo 2.0. RT 5-10 min. Plates were read with Envision plate reader. Data was analyzed using Prism. Only inner 60 well are used for the assay. The edge wells were filled with media to prevent dry out.

[3] = Mouse whole blood stability test; assay type: in vitro ADME
Experimental: In vitro stability of Linker-Prodrug in mouse whole blood Scheme 15. Metabolism of LP1 (M2980) in whole blood.
Stock solution of test compound was provided in 100% DMSO. The stock solution for each compound was diluted into 500 μM with mixture of 50% acetonitrile, then diluted into mouse blood to achieve a final concentration of 1.0 μM. 1.0 μM of test compound in duplicate was incubated in blood at 37° C. Aliquots of 50 uL sample was collected at 0, 15, 30, 60, 120, 240, 480 min, and 24 hours. Reactions were terminated at various time points (0, 15, 30, 60, 120, 240, 480 min, 24 hours) by adding 200 μL of ice-cold acetonitrile containing internal standard with 1% formic acid and then ultrasound for 30 seconds. Plate was centrifuged (4000 rpm, 15 min). 50 μL of supernatants were transferred into a daughter plate containing 200 μL of H2O in each well. The samples were mixed well and analyzed with UPLC-MS/MS.
A Waters liquid chromatographic system was used. Detection was performed on AP14000 Q-Trap and AP15500 mass spectrometer equipped with TurbolonSpray (ESI) Interface (Applied Biosystems, Concord, Ontario, Canada). Analyst 1.5 and 1.6.2 software packages (Applied Biosystems) were used to control the LC-MS/MS system, as well as for data acquisition and processing.
Chromatographic separation was achieved on the Wates BEH C18 column (50*2.1 mm ID, 1.7 μm). The column temperature was maintained at ambient temperature (25° C.). The flow rate was maintained at 0.6 mL/min and the following mobile phases were used: water (0.1% formic acid, v/v) (phase A) and acetonitrile (0.1% formic acid, v/v) (phase B).
Test compounds (1.0 μM) were incubated in blood at 37° C. in duplicate. Aliquots of 50 uL sample was collected at 0, 15, 30, 60, 120, 240, 480 min, and 24 hours. Reactions were terminated at various time points (0, 15, 30, 60, 120, 240, 480 min, 24 hours by adding 200 μL of ice-cold acetonitrile containing internal standard with 1% formic acid, then ultrasound for 30 seconds. The plate was centrifuged (4000 rpm, 15 min). 50 μL of supernatants were transferred into a daughter plate containing 200 μL of water in each well. Samples were mixed well and analyzed with UPLC-MS/MS.
The % was calculated based on initial 1 uM as 100% and the standard concentration curve.

[4] = tested on: SK-BR-3 cells; assay: SKBR3 cell-based anti-proliferation / viability assay (CellTiter-Glo); set-up: species or system human; details: for pEC50: SK-BR-3, read-out: SKBR3 EC50
Experimental: as §9, §10, §11, §12
The cell line used in the anti-proliferation assays was SK-BR-3, a human breast, adenocarcinoma (pleural effusion) cell line; The cells were grown in McCoy's 5a Medium+10% FBS. To run the assay, the cells (80 μl, 1000 cells) were added to each well in a 96-well plate and incubated for 24 hours at 37° C. with CO2. Next, the cells were treated with test compounds (20 μl) at various concentrations in appropriate cell culture medium (total volume, 0.1 mL). The control wells contain cells and the medium but lack the test compounds. The plates were incubated for 144 hours at 37° C. with CO2. CTG reagent was then added to the wells (100 μl). After the plates were shaken for 10 min and then incubated for 10 min at room temperature, paste the clear bottom with white back seal and record luminescence with Envision. The inhibition % was calculated according to the following equation: inhibition %=[1-(assay-blank)/(control-blank)]×100.

[5] = tested on: NCI-H1975 cells; assay: anti-Her2 viability assay, NCI-H1975 cells (target negative); assay type: cell-based; details: NCI-H1975 target negative cells, 6 days; for pIC50: Homo sapiens, 144 h, read-out: H1975 IC50
Experimental: as §9, §10, §11, §12

[6] = tested on: JIMT-1; assay: in vitro cell killing activity, JIMT-1 cells (CellTiter Glo viability); assay type: cell-based; details: JIMT-1 cells; for pIC50: Homo sapiens, read-out: JIMT-1 IC50
Experimental: as §12

[7] = Human plasma stability
[8] = tested on: NCI-N87 cells; assay: anti-Her2 viability assay, NCI-N87 cells (target positive); assay type: cell-based; details: NCI-N87 target positive cells, 6 days; for pIC50: Homo sapiens, 144 h, read-out: N87 IC50
Experimental: as §9, §10, §11, §12

[9] = in vitro; details: human, plasma
[10] = M3385 metabolism in human liver S9 with NADPH and UDPGA; assay type: in vitro ADME; details: M3385 incubated in human liver S9 with NADPH and UDPGA, 240 min; single peak (parent or metabolite)
Description: as §1
The metabolism of model compound M3385 was evaluated in human liver S9 with NADPH and UDPGA as follows:
as §2, §3, §4, §5
as §6, with “T240 with” for “T240-without”, “solution; 100” for “solution and 200”, “8 mM NADPH solution; and 100 μL of 20 mM UDPGA solution” for “buffer”, “T240” for “T240-w/o”
as §7, §8

[11] = whole blood, mouse blood, read-out: Mouse blood stability T1/2 (converted)
[12] = SKBR3 target positive cells, 6 days

Row | Structure (SMILES) | Calu-3 % Kill [2] | pIC50 [2] | Mouse blood stability % Remaining at 24 h ([3]; mouse blood) | half-life at 1 μM [3, 11] | pEC50 ([4]; Homo sapiens) | SKBR3 % Kill [4, 12] | pIC50 [5] | H1975 % Kill [5] | pIC50 [6] | JIMT-1 % Kill [6] | half-life [7] | Human plasma stability % Remaining at 24 h [7] | pIC50 [8] | N87 % Kill [8] | Human plasma stability % Remaining at 24 h | half-life at 1 μM ([3]; mouse, blood) | Mouse blood stability % Remaining at 24 h ([3]; mouse, blood, 1 μM) | half-life [9] | further results
1 | CC[C@@]1(O)C(=O)OCc2c1cc1n(c2=O)Cc2c-1nc1cc(F)c(C)c3c1c2[C@@H](NC(=O)COCNC(=O)CN)CC3 [MP1] |  |  |  |  |  |  |  |  |  |  |  |  |  |  |  |  |  |  | Relative UV Abundance* (%), group total ([1]; human, 10 μM, pH 7.4): 4.93%
2 | CC[C@@]1(O)C(=O)OCc2c1cc1n(c2=O)Cc2c-1nc1cc(F)c(C)c3c1c2[C@@H](NC(=O)COCNC(=O)[C@@H](N)Cc1ccccc1)CC3 [P7, (2S)-2-amino-N-[({[(10S,23S)-10-ethyl-18-fluoro-10-hydroxy-19-methyl-5,9-dioxo-8-oxa-4,15-diazahexacyclo[14.7.1.0^2,14.0^4,13.0^6,11.0^20,24]tetracosa-1,6(11),12,14,16,18,20(24)-heptaen-23-yl]carbamoyl}methoxy)methyl]-3-phenylpropanamide] | 93.7% | 8.48 | 6.3% | 0.2 h | 8.70 | 97.0% | 8.05 | 98.8% | 7.88 | 93.4% | 24.4 h | 51.3% | 8.36 |  |  |  |  |  | 
3 | CC[C@@]1(O)C(=O)OCc2c1cc1n(c2=O)Cc2c-1nc1cc(F)c(C)c3c1c2[C@@H](NC(=O)COCNC(=O)[C@@H](N)CCC(=O)O)CC3 [P4, (4S)-4-amino-4-{[({[(10S,23S)-10-ethyl-18-fluoro-10-hydroxy-19-methyl-5,9-dioxo-8-oxa-4,15-diazahexacyclo[14.7.1.0^2,14.0^4,13.0^6,11.0^20,24]tetracosa-1,6(11),12,14,16,18,20(24)-heptaen-23-yl]carbamoyl}methoxy)methyl]carbamoyl}butanoic acid] | 93.7% | 8.25 | 66.1% | 9.2 h | 8.18 | 96.6% | 7.62 | 96.8% | 7.68 | 92.0% | 107 h | 90.4% | 8.01 | 97.7% |  |  |  |  | 
4 | CC[C@@]1(O)C(=O)OCc2c1cc1n(c2=O)Cc2c-1nc1cc(F)c(C)c3c1c2[C@@H](NC(=O)COCNC(=O)[C@@H](N)CCC(N)=O)CC3 [P3, (2S)-2-amino-N-[({[(10S,23S)-10-ethyl-18-fluoro-10-hydroxy-19-methyl-5,9-dioxo-8-oxa-4,15-diazahexacyclo[14.7.1.0^2,14.0^4,13.0^6,11.0^20,24]tetracosa-1,6(11),12,14,16,18,20(24)-heptaen-23-yl]carbamoyl}methoxy)methyl]pentanediamide] | 90.7% | 7.80 |  |  | 7.94 | 94.3% | 7.26 | 88.5% | 7.05 | 81.3% |  |  | 7.52 | 95.5% | 48.9% | 1 h | 6.5% | 24.1 h | 
5 | CC[C@@]1(O)C(=O)OCc2c1cc1n(c2=O)Cc2c-1nc1cc(F)c(C)c3c1c2[C@@H](NC(=O)COCNC(=O)CN)CC3 [P1, 2-Amino-N-[({[(10S,23S)-10-ethyl-18-fluoro-10-hydroxy-19-methyl-5,9-dioxo-8-oxa-4,15-diazahexacyclo[14.7.1.0^2,14.0^4,13.0^6,11.0^20,24]tetracosa-1,6(11),12,14,16,18,20(24)-heptaen-23-yl]carbamoyl}methoxy)methyl]acetamide] | 93.1% | 8.17 |  |  | 8.02 | 96.0% | 7.62 | 96.4% | 7.58 | 89.8% |  |  | 8.03 | 98.0% | 72.4% | 0.63 h | 4.1% | 49.6 h | pIC50 ([4]; Homo sapiens, SK-BR-3, 144 h, SKBR3 target positive cells, 6 days, CellTiter Glo, read-out: SKBR3 IC50): 8.24
6 | CC[C@@](O)(C(=O)O)c1cc2n(c(=O)c1CO)Cc1c-2nc2cc(F)c(C)c3c2c1[C@@H](NC(=O)COCNC(=O)CN)CC3 [MP1R] |  |  |  |  |  |  |  |  |  |  |  |  |  |  |  |  |  |  | Relative UV Abundance* (%) [10]: 0.29%; Relative UV Abundance* (%) ([1]; M3385 incubated in human liver S9 without NADPH and UDPGA, single peak (parent or metabolite)): 0.38%
